Peptide text beside a SMILES is read from it. * marks the point of attachment. Dansyl = CN(C)c1cccc2c(S(=O)(=O)*)cccc12
Tested on: receptor labeled by the radioiodinated analogue of 1 (4, [125I]-YLFQPQRF-NH2); neuropeptide FF receptor
Experiment: Competitive radioligand binding against 4 ([125I]Y8F-amide)
Settings: mixture-based positional scanning; difference from averaged radioligand displacement of whole library (0); about 80 a.u. = 10-fold change in Ki

Row | SMILES | Relative Binding Index (RBI) [a.u.]
1 | CC(C)[C@H](NC(=O)[C@@H]1CCCN1S(=O)(=O)c1cccc2c(N(C)C)cccc12)C(=O)N[C@@H](CCCNC(=N)N)C(N)=O [Dansyl-PVR-amide] (Dansyl-Pro-Val-Arg-NH2) | −53
2 | CN(C)c1cccc2c(S(=O)(=O)N3CCC[C@H]3C(=O)N[C@@H](Cc3c[nH]c4ccccc34)C(=O)N[C@@H](CCCNC(=N)N)C(N)=O)cccc12 [Dansyl-PWR-amide] (Dansyl-Pro-Trp-Arg-NH2) | −39
3 | CN(C)c1cccc2c(S(=O)(=O)N[C@@H](CCC(N)=O)C(=O)N[C@@H](Cc3ccccc3)C(=O)N[C@@H](CCCNC(=N)N)C(N)=O)cccc12 [Dansyl-QFR-amide] | 20
4 | CN(C)c1cccc2c(S(=O)(=O)N[C@@H](CCC(N)=O)C(=O)N[C@@H](Cc3c[nH]cn3)C(=O)N[C@@H](CCCNC(=N)N)C(N)=O)cccc12 [Dansyl-QHR-amide] (Dansyl-Gln-His-Arg-NH2) | 16
5 | CN(C)c1cccc2c(S(=O)(=O)N[C@@H](CCC(N)=O)C(=O)N[C@@H](CCCNC(=N)N)C(=O)N[C@@H](CCCNC(=N)N)C(N)=O)cccc12 [Dansyl-QRR-amide] (Dansyl-Gln-Arg-Arg-NH2) | 20
6 | CN(C)c1cccc2c(S(=O)(=O)N[C@@H](CCC(N)=O)C(=O)N[C@@H](Cc3c[nH]c4ccccc34)C(=O)N[C@@H](CCCNC(=N)N)C(N)=O)cccc12 [Dansyl-QWR-amide] (Dansyl-Gln-Trp-Arg-NH2) | 30
7 | CN(C)c1cccc2c(S(=O)(=O)N[C@@H](CCC(N)=O)C(=O)N[C@@H](Cc3ccc(O)cc3)C(=O)N[C@@H](CCCNC(=N)N)C(N)=O)cccc12 [Dansyl-QYR-amide] (Dansyl-Gln-Tyr-Arg-NH2) | 20
8 | C[C@H](NC(=O)[C@H](CCCNC(=N)N)NS(=O)(=O)c1cccc2c(N(C)C)cccc12)C(=O)N[C@@H](CCCNC(=N)N)C(N)=O [Dansyl-RAR-amide] (Dansyl-Arg-Ala-Arg-NH2) | −42
9 | CN(C)c1cccc2c(S(=O)(=O)N[C@@H](CCCNC(=N)N)C(=O)N[C@@H](CC(=O)O)C(=O)N[C@@H](CCCNC(=N)N)C(N)=O)cccc12 [Dansyl-RDR-amide] (Dansyl-Arg-Asp-Arg-NH2) | −11
10 | CN(C)c1cccc2c(S(=O)(=O)N[C@@H](CCCNC(=N)N)C(=O)N[C@@H](CCC(=O)O)C(=O)N[C@@H](CCCNC(=N)N)C(N)=O)cccc12 [Dansyl-RER-amide] (Dansyl-Arg-Glu-Arg-NH2) | 7
11 | CN(C)c1cccc2c(S(=O)(=O)N[C@@H](CCCNC(=N)N)C(=O)N[C@@H](Cc3ccccc3)C(=O)N[C@@H](CCCNC(=N)N)C(N)=O)cccc12 [Dansyl-RFR-amide] (Dansyl-Arg-Phe-Arg-NH2) | 5
12 | CN(C)c1cccc2c(S(=O)(=O)N[C@@H](CCCNC(=N)N)C(=O)NCC(=O)N[C@@H](CCCNC(=N)N)C(N)=O)cccc12 [Dansyl-RGR-amide] (Dansyl-Arg-Gly-Arg-NH2) | 12
13 | CN(C)c1cccc2c(S(=O)(=O)N[C@@H](CCCNC(=N)N)C(=O)N[C@@H](Cc3c[nH]cn3)C(=O)N[C@@H](CCCNC(=N)N)C(N)=O)cccc12 [Dansyl-RHR-amide] (Dansyl-Arg-His-Arg-NH2) | 1
14 | CC[C@H](C)[C@H](NC(=O)[C@H](CCCNC(=N)N)NS(=O)(=O)c1cccc2c(N(C)C)cccc12)C(=O)N[C@@H](CCCNC(=N)N)C(N)=O [Dansyl-RIR-amide] (Dansyl-Arg-Ile-Arg-NH2) | 13
15 | CN(C)c1cccc2c(S(=O)(=O)N[C@@H](CCCNC(=N)N)C(=O)N[C@@H](CCCCN)C(=O)N[C@@H](CCCNC(=N)N)C(N)=O)cccc12 [Dansyl-RKR-amide] (Dansyl-Arg-Lys-Arg-NH2) | 4
16 | CC(C)C[C@H](NC(=O)[C@H](CCCNC(=N)N)NS(=O)(=O)c1cccc2c(N(C)C)cccc12)C(=O)N[C@@H](CCCNC(=N)N)C(N)=O [Dansyl-RLR-amide] | −2
17 | CSCC[C@H](NC(=O)[C@H](CCCNC(=N)N)NS(=O)(=O)c1cccc2c(N(C)C)cccc12)C(=O)N[C@@H](CCCNC(=N)N)C(N)=O [Dansyl-RMR-amide] (Dansyl-Arg-Met-Arg-NH2) | 7
18 | CN(C)c1cccc2c(S(=O)(=O)N[C@@H](CCCNC(=N)N)C(=O)N[C@@H](CC(N)=O)C(=O)N[C@@H](CCCNC(=N)N)C(N)=O)cccc12 [Dansyl-RNR-amide] (Dansyl-Arg-Asn-Arg-NH2) | 8
19 | CN(C)c1cccc2c(S(=O)(=O)N[C@@H](CCCNC(=N)N)C(=O)N[C@@H](CCC(N)=O)C(=O)N[C@@H](CCCNC(=N)N)C(N)=O)cccc12 [Dansyl-RQR-amide] (Dansyl-Arg-Gln-Arg-NH2) | 20
20 | CN(C)c1cccc2c(S(=O)(=O)N[C@@H](CCCNC(=N)N)C(=O)N[C@@H](CCCNC(=N)N)C(=O)N[C@@H](CCCNC(=N)N)C(N)=O)cccc12 [Dansyl-RRR-amide] (Dansyl-Arg-Arg-Arg-NH2) | 5
21 | CN(C)c1cccc2c(S(=O)(=O)N[C@@H](CCCNC(=N)N)C(=O)N[C@@H](CO)C(=O)N[C@@H](CCCNC(=N)N)C(N)=O)cccc12 [Dansyl-RSR-amide] (Dansyl-Arg-Ser-Arg-NH2) | 27
22 | C[C@@H](O)[C@H](NC(=O)[C@H](CCCNC(=N)N)NS(=O)(=O)c1cccc2c(N(C)C)cccc12)C(=O)N[C@@H](CCCNC(=N)N)C(N)=O [Dansyl-RTR-amide] (Dansyl-Arg-Thr-Arg-NH2) | 12
23 | CC(C)[C@H](NC(=O)[C@H](CCCNC(=N)N)NS(=O)(=O)c1cccc2c(N(C)C)cccc12)C(=O)N[C@@H](CCCNC(=N)N)C(N)=O [Dansyl-RVR-amide] (Dansyl-Arg-Val-Arg-NH2) | 2
24 | CN(C)c1cccc2c(S(=O)(=O)N[C@@H](CCCNC(=N)N)C(=O)N[C@@H](Cc3c[nH]c4ccccc34)C(=O)N[C@@H](CCCNC(=N)N)C(N)=O)cccc12 [Dansyl-RWR-amide] (Dansyl-Arg-Trp-Arg-NH2) | 16

Continued, values first:

Row | Relative Binding Index (RBI) [a.u.] | SMILES
25 | −42 | C[C@@H](O)[C@H](NC(=O)[C@@H]1CCCN1S(=O)(=O)c1cccc2c(N(C)C)cccc12)C(=O)N[C@@H](CCCNC(=N)N)C(N)=O [Dansyl-PTR-amide] (Dansyl-Pro-Thr-Arg-NH2)
26 | −28 | C[C@H](NC(=O)[C@H](CCC(N)=O)NS(=O)(=O)c1cccc2c(N(C)C)cccc12)C(=O)N[C@@H](CCCNC(=N)N)C(N)=O [Dansyl-QAR-amide] (Dansyl-Gln-Ala-Arg-NH2)
27 | 3 | CN(C)c1cccc2c(S(=O)(=O)N[C@@H](CCC(N)=O)C(=O)N[C@@H](CC(=O)O)C(=O)N[C@@H](CCCNC(=N)N)C(N)=O)cccc12 [Dansyl-QDR-amide] (Dansyl-Gln-Asp-Arg-NH2)
28 | 22 | CN(C)c1cccc2c(S(=O)(=O)N[C@@H](CCC(N)=O)C(=O)N[C@@H](CCC(=O)O)C(=O)N[C@@H](CCCNC(=N)N)C(N)=O)cccc12 [Dansyl-QER-amide] (Dansyl-Gln-Glu-Arg-NH2)
29 | 27 | CN(C)c1cccc2c(S(=O)(=O)N[C@@H](CCC(N)=O)C(=O)NCC(=O)N[C@@H](CCCNC(=N)N)C(N)=O)cccc12 [Dansyl-QGR-amide] (Dansyl-Gln-Gly-Arg-NH2)
30 | 28 | CC[C@H](C)[C@H](NC(=O)[C@H](CCC(N)=O)NS(=O)(=O)c1cccc2c(N(C)C)cccc12)C(=O)N[C@@H](CCCNC(=N)N)C(N)=O [Dansyl-QIR-amide] (Dansyl-Gln-Ile-Arg-NH2)
31 | 19 | CN(C)c1cccc2c(S(=O)(=O)N[C@@H](CCC(N)=O)C(=O)N[C@@H](CCCCN)C(=O)N[C@@H](CCCNC(=N)N)C(N)=O)cccc12 [Dansyl-QKR-amide] (Dansyl-Gln-Lys-Arg-NH2)
32 | 13 | CC(C)C[C@H](NC(=O)[C@H](CCC(N)=O)NS(=O)(=O)c1cccc2c(N(C)C)cccc12)C(=O)N[C@@H](CCCNC(=N)N)C(N)=O [Dansyl-QLR-amide] (Dansyl-Gln-Leu-Arg-NH2)
33 | 21 | CSCC[C@H](NC(=O)[C@H](CCC(N)=O)NS(=O)(=O)c1cccc2c(N(C)C)cccc12)C(=O)N[C@@H](CCCNC(=N)N)C(N)=O [Dansyl-QMR-amide] (Dansyl-Gln-Met-Arg-NH2)
34 | 23 | CN(C)c1cccc2c(S(=O)(=O)N[C@@H](CCC(N)=O)C(=O)N[C@@H](CC(N)=O)C(=O)N[C@@H](CCCNC(=N)N)C(N)=O)cccc12 [Dansyl-QNR-amide] (Dansyl-Gln-Asn-Arg-NH2)
35 | 25 | CN(C)c1cccc2c(S(=O)(=O)N[C@@H](CCC(N)=O)C(=O)N3CCC[C@H]3C(=O)N[C@@H](CCCNC(=N)N)C(N)=O)cccc12 [Dansyl-QPR-amide] (Dansyl-Gln-Pro-Arg-NH2)
36 | 35 | CN(C)c1cccc2c(S(=O)(=O)N[C@@H](CCC(N)=O)C(=O)N[C@@H](CCC(N)=O)C(=O)N[C@@H](CCCNC(=N)N)C(N)=O)cccc12 [Dansyl-QQR-amide, dansyl-Gln-Gln-Arg-NH2] (Dansyl-Gln-Gln-Arg-NH2)
37 | 42 | CN(C)c1cccc2c(S(=O)(=O)N[C@@H](CCC(N)=O)C(=O)N[C@@H](CO)C(=O)N[C@@H](CCCNC(=N)N)C(N)=O)cccc12 [Dansyl-QSR-amide, dansyl-Gln-Ser-Arg-NH2] (Dansyl-Gln-Ser-Arg-NH2)
38 | 27 | C[C@@H](O)[C@H](NC(=O)[C@H](CCC(N)=O)NS(=O)(=O)c1cccc2c(N(C)C)cccc12)C(=O)N[C@@H](CCCNC(=N)N)C(N)=O [Dansyl-QTR-amide] (Dansyl-Gln-Thr-Arg-NH2)
39 | 17 | CC(C)[C@H](NC(=O)[C@H](CCC(N)=O)NS(=O)(=O)c1cccc2c(N(C)C)cccc12)C(=O)N[C@@H](CCCNC(=N)N)C(N)=O [Dansyl-QVR-amide] (Dansyl-Gln-Val-Arg-NH2)
40 | 10 | CN(C)c1cccc2c(S(=O)(=O)N[C@@H](CCCNC(=N)N)C(=O)N3CCC[C@H]3C(=O)N[C@@H](CCCNC(=N)N)C(N)=O)cccc12 [Dansyl-RPR-amide] (Dansyl-Arg-Pro-Arg-NH2)

From patent publication US6960574B2, “Antagonists of RF-amide neuropeptides” (University of Florida, priority 2002, dated 2005)
